Columns and labels:
Papayas ‘Golden’ [1] = test: Example 2 (yellow stage): weight loss; format: in vivo, papaya; conditions: for Weight loss: 500 ppb of MCP
Experimental: (§1) A similar test to Example 1 but papayas are tested during their yellow stage. Papayas ‘Golden’ were harvested in Linhares—Espírito Santo—Brazil. The fruits were packed in MAP Bags and put in cardboard boxes.
(§2) The fruits were first left at room temperature during 3 days to reach yellow maturity stage.
(§3) After that the appropriate weight of papayas was placed in each bag after harvest. Bags were placed in the same cardboard boxes used to export the fruits. Papayas then were cold stored at (11° C.) at the Laboratory.
(§4) The Test Protocol that was used was as follows. 18 MAP bags were packed. Each bag held approximately 3.8 kg (8.4 lb) of papayas. One such bag was packed in each cardboard box. Total weight of papayas in MAP bags was approximately 68 kg. Approximately 68 kg of papayas were placed into cardboard boxes identical to those used for the MAP bags.
(§5) The MAP-packaged papayas were packaged as follows: Nine fruits, approximately 3.8 kg were carefully placed into microperforated bags, and the bags were sealed by twisting the open side of the bag, folding down the twisted end, and placing a rubber band around the twisted and folded end of the bag.
(§6) All papayas were kept at cold temperature (11° C.) during 26 days and after that the fruits (packed in MAP bags or not) were put in room temperature (22° C.) during 8 days.
(§7) After the 3 days for maturation at room temperature, when the papayas had around 5 lbf of average firmness, each treatment set was marked, placed in a hermetical chamber at cold temperature (11° C.). All chambers were of equal size and packed the same way. Treatment was for 12 hr. In the chambers for the 2 “MCP” treatment groups, at the beginning of the treatment period, SmartFresh™ were placed in the chamber. The amount of SmartFresh™ was chosen to achieve the indicated concentration of 1-methylcyclopropene in the atmosphere of the chamber.
Weight loss was measured using the difference in weight observed in selected papayas from each treatment. These fruits were weighted before the cold storage and then the same fruits were weighted on the evaluations days.

Papayas ‘Golden’ [2] = test: Example 2 (yellow stage): pulp firmness, external; format: in vivo, papaya; conditions: for Pulp Firmness - External: 500 ppb of MCP
Experimental: as §1, §2, §3, §4, §5, §6, §7
(§8) Evaluation for skin color and firmness was as follows. Day “zero” was the day the papayas were removed from the chamber and placed in storage.
For the Pulp Firmness evaluation two measurements were done, one for External Firmness and another for Internal Firmness. For External Firmness, the papayas had the skin removed with a peeler and the pulp firmness was measured with a Firmness Texture Analyzer (FTA) with a probe of 8 mm. For Internal Firmness, the papayas were cut transversally and a measurement close to the center of the fruit was taken with the FTA.

Papayas ‘Golden’ [3] = test: Example 3: papaya skin color rating, MAP bags with different perforations; format: in vivo; conditions: for Skin color ratings: 100 ppb of MCP, scale 1 green to 5 yellow
Experimental: Papayas ‘Golden’ were harvested in Linhares—Espírito Santo—Brazil. The fruits were packed in MAP Bags and put in cardboard boxes.
(§9) The appropriate weight of papayas was placed in each bag after harvest. Bags were placed in the same cardboard boxes used to export the fruits. Papayas then were cold stored at (11° C.) at the Laboratory.
The Test Protocol that was used was as follows. 40 MAP bags were packed. Each bag held approximately 3.8 kg (8.4 lb) of papayas. One of such bag was packed in each cardboard box. Total weight of papayas in MAP bags was approximately 152 kg. Approximately 8 kg of papayas were placed into cardboard boxes identical to those used for the MAP bags.
The MAP-packaged papayas were packaged as follows: Nine fruits, approximately 3.8 kg, were carefully placed into microperforated MAP-bags, and the bags were sealed by twisting the open side of the bag, folding down the twisted end, and placing a rubber band around the twisted and folded end of the bag.
All papayas were kept at cold temperature (11° C.) during 14 days and after that the fruits (packed in MAP bags or not) were put in room temperature (24° C.) during 5 days.
One day after harvest, when the papayas had around 30 lbf of average firmness, each treatment set was marked and placed in a hermetical chamber at cold temperature (11° C.). All chambers were of equal size and packed the same way. Treatment was for 12 hours.
In the chambers, SmartFresh™ was placed at the beginning of the treatment period for the 5 “MCP” treatment groups. The amount of SmartFresh™ was chosen to achieve the indicated concentration of 1-methylcyclopropene in the atmosphere of the chamber.
as §8
(§10) The Papaya Skin Color was rated with the following scale: 1: green; 2: approximately 25%; 3: approximately 50% colored; 4: approximately 75% colored; 5: yellow.

Papayas ‘Golden’ [4] = test: Example 1: papaya skin color rating; format: in vivo; conditions: for Skin color ratings: 100 ppb of MCP, scale 1 green to 5 yellow
Experimental: Papayas ‘Golden’ were harvested in Linhares—Espírito Santo—Brazil. The harvested fruits were packed in MAP Bags and put in cardboard boxes.
as §9
The Test Protocol that was used was as follows. 36 MAP bags were packed. Each bag held approximately 3.8 kg (8.4 lb) of papayas. One such bag was packed in each cardboard box. Total weight of papayas in MAP bags was approximately 137 kg. Approximately 91 kg of papayas were placed into cardboard boxes identical to those used for the MAP bags.
as §5
All papayas were kept at cold temperature (11° C.) during 27 days and after that the fruits (packed in MAP bags or not) were put in room temperature (22° C.) during 8 days.
One day after harvest, when the papayas had around 25 lbf of average firmness, each treatment set was marked, placed in a hermetical chamber at cold temperature (11° C.). All chambers were of equal size and packed the same way. Treatment was for 12 hours. In the chambers for the 3 “MCP” treatment groups, at the beginning of the treatment period, SmartFresh™ were placed in the chamber. The amount of SmartFresh™ was chosen to achieve the indicated concentration of 1-methylcyclopropene in the atmosphere of the chamber.
as §8, §10

[5] = MAP bag, 26 days at 11° C. then 0 days @ 22° C.
[6] = MAP bag, 26 days at 11° C. then 4 days @ 22° C.
[7] = MAP bag, 26 days at 11° C. then 8 days @ 22° C.
[8] = No Bag, 26 days at 11° C. then 0 days @ 22° C.
[9] = No Bag, 26 days at 11° C. then 4 days @ 22° C.
[10] = No Bag, 26 days at 11° C. then 8 days @ 22° C.

SMILES: CC1=CC1 [MCP, 1-methylcyclopropene]
- weight loss, in words (Papayas ‘Golden’ [1]; 1-MCP alone (no MAP)): elevated weight loss
- Weight loss (Papayas ‘Golden’ [1]; [5]): 0.68%
- Weight loss (Papayas ‘Golden’ [1]; [6]): 1.21%
- Weight loss (Papayas ‘Golden’ [1]; [7]): 2.09%
- Weight loss (Papayas ‘Golden’ [1]; [8]): 5.42%
- Weight loss (Papayas ‘Golden’ [1]; [9]): 9.07%
- Weight loss (Papayas ‘Golden’ [1]; [10]): 16.53%
- external firmness during shelf-life, in words (Papayas ‘Golden’ [2]; 1-MCP alone, compared to the present invention (1-MCP + MAP)): lower efficiency to maintain external firmness
- Pulp Firmness - External (Papayas ‘Golden’ [2]; [5]): 3.84 lbf
- Pulp Firmness - External (Papayas ‘Golden’ [2]; [6]): 1.98 lbf
- Pulp Firmness - External (Papayas ‘Golden’ [2]; [7]): 1.30 lbf
- Pulp Firmness - External (Papayas ‘Golden’ [2]; [8]): 3.03 lbf
- Pulp Firmness - External (Papayas ‘Golden’ [2]; [9]): 1.88 lbf
- Pulp Firmness - External (Papayas ‘Golden’ [2]; [10]): 1.11 lbf
- papayas color, in words (Papayas ‘Golden’ [3]; 1-MCP alone (no MAP)): did not hold the papayas color
- Skin color ratings (Papayas ‘Golden’ [3]; 24 Perf. MAP bag, 14 days at 11° C. then 0 days @ 24° C.): 1.60
- Skin color ratings (Papayas ‘Golden’ [3]; 24 Perf. MAP bag, 14 days at 11° C. then 3 days @ 24° C.): 2.04
- Skin color ratings (Papayas ‘Golden’ [3]; 24 Perf. MAP bag, 14 days at 11° C. then 5 days @ 24° C.): 3.75
- Skin color ratings (Papayas ‘Golden’ [3]; 48 Perf. MAP bag, 14 days at 11° C. then 0 days @ 24° C.): 1.96
- Skin color ratings (Papayas ‘Golden’ [3]; 48 Perf. MAP bag, 14 days at 11° C. then 3 days @ 24° C.): 3.02
- Skin color ratings (Papayas ‘Golden’ [3]; 48 Perf. MAP bag, 14 days at 11° C. then 5 days @ 24° C.): 4.52
- Skin color ratings (Papayas ‘Golden’ [3]; 90 Perf. MAP bag, 14 days at 11° C. then 0 days @ 24° C.): 1.71
- Skin color ratings (Papayas ‘Golden’ [3]; 90 Perf. MAP bag, 14 days at 11° C. then 3 days @ 24° C.): 3.18
- Skin color ratings (Papayas ‘Golden’ [3]; 90 Perf. MAP bag, 14 days at 11° C. then 5 days @ 24° C.): 4.36
- Skin color ratings (Papayas ‘Golden’ [3]; 180 Perf. MAP bag, 14 days at 11° C. then 0 days @ 24° C.): 1.73
- Skin color ratings (Papayas ‘Golden’ [3]; 180 Perf. MAP bag, 14 days at 11° C. then 3 days @ 24° C.): 4.13
- Skin color ratings (Papayas ‘Golden’ [3]; 180 Perf. MAP bag, 14 days at 11° C. then 5 days @ 24° C.): 4.84
- Skin color ratings (Papayas ‘Golden’ [3]; No Bag, 14 days at 11° C. then 0 days @ 24° C.): 1.82
- Skin color ratings (Papayas ‘Golden’ [3]; No Bag, 14 days at 11° C. then 3 days @ 24° C.): 4.11
- Skin color ratings (Papayas ‘Golden’ [3]; No Bag, 14 days at 11° C. then 5 days @ 24° C.): 4.96
- skin coloring delay and external pulp firmness retention, in words (Papayas ‘Golden’ [3]; combination of 1-MCP and MAP bag versus any treatment alone): synergistic effect
- papayas color, in words (Papayas ‘Golden’ [4]; 1-MCP alone (no MAP)): did not hold the papayas color
- Skin color ratings (Papayas ‘Golden’ [4]; MAP bag, 27 days at 11° C. then 0 days @ 22° C.): 2.14
- Skin color ratings (Papayas ‘Golden’ [4]; MAP bag, 27 days at 11° C. then 4 days @ 22° C.): 2.74
- Skin color ratings (Papayas ‘Golden’ [4]; MAP bag, 27 days at 11° C. then 8 days @ 22° C.): 3.46
- Skin color ratings (Papayas ‘Golden’ [4]; No Bag, 27 days at 11° C. then 0 days @ 22° C.): 1.70
- Skin color ratings (Papayas ‘Golden’ [4]; No Bag, 27 days at 11° C. then 4 days @ 22° C.): 4.28
- Skin color ratings (Papayas ‘Golden’ [4]; No Bag, 27 days at 11° C. then 8 days @ 22° C.): 4.44
